Active and inactive are the calls of the source.
Columns and labels:
[1] = MITF: Counter assay: A375 proliferation Measured in Cell-Based System Using Plate Reader - 2084-03_Inhibitor_Dose_DryPowder_Activity_Set8.; assay type: functional; conditions: A-375
[2] = MITF Orthogonal Assay: SK-MEL-5 CTG Assay Measured in Cell-Based System Using Plate Reader - 2084-02_Inhibitor_Dose_DryPowder_Activity_Set7.; assay type: functional
[3] = inhibitors of TRPM1-promoter reporter in SK-MEL-5 – cell-based, luciferase, dry powder, set 8, MITF inhibitor project, dose response (AID 624430); assay type: functional
[4] = A2780 cell killing – plate reader, dry powder samples, cytotoxicity control, dose response (AID 743046); assay type: functional, cell-based
Paired box protein Pax-8 = Paired box protein Pax-8 (Homo sapiens, UniProt Q06710); assay: PAX8 transcriptional activity inhibition in RMG-I – RMG-I cells, luciferase, cherry-pick, dose response (AID 687027); assay type: functional, cell-based;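 further: luciferase reporter driven by Pax8 target thyroperoxidase promoter measured by SteadyGlo luminescence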
[5] = OVCAR-3 cell viability loss – plate reader, dry powder samples, PAX8 inhibitor project, dose response (AID 743044); assay type: functional, cell-based
[6] = biological target: COUP transcription factor 2 (Homo sapiens, UniProt P24468); assay: Luminescence-based cell-based high throughput dose response assay to identify inhibitors of COUP-TFII (NR2F2).; assay type: functional;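 further: HEK293 cells transiently cotransfected with COUP-TFII expression vector and reporter; luciferase reporter luminescence driven by COUP-TFII from the pX2-168 reporter plasmid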
[7] = biological target: T1, Oxysterols receptor LXR-beta (Homo sapiens, UniProt P55055); assay type: functional, cell-based;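 further: agonist activity at LXR measured by a cell-based luminescence readout across a dose range, run as a counterscreen for daf-12 agonists; HEK293 cells with Gal4-LXR fusion and GAL4-driven luciferase reporter; potency for activation of Gal4-LXR reporter so compounds are agonists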
T1 sequence (P55055 whole entry): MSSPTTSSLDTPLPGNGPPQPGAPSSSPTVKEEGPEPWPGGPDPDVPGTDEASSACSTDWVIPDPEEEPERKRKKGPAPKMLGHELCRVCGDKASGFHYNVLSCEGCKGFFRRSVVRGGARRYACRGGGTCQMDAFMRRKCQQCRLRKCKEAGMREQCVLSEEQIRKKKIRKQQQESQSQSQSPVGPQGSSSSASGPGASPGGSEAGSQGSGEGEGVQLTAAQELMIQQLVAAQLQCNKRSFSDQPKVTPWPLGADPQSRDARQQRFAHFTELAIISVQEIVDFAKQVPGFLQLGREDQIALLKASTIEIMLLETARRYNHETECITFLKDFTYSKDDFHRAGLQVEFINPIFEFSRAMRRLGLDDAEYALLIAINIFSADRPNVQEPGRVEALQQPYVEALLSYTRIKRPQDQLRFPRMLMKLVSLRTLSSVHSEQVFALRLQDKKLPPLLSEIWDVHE

[8] = T. cruzi growth inhibition in host cells, dose response, cell-based, plate reader, dry powder, set 2 (AID 652275); assay type: functional
[9] = blockers of bursicon-stimulated LGR2 cAMP reporter – cell-based, HEK293, CRE-luciferase reporter, cherry pick, set 2, dose response (AID 743343); assay type: functional;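 further: transfected cells were stimulated with diluted bursicon conditioned medium after compound addition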
[10] = A549 cell cytotoxicity, dose response, cytotoxicity control, plate reader, cherry-pick, antagonist series (AID 743412); assay type: functional, cell-based
HEK293 = assay: EBV LMP1 TES2 canonical NF-kB signalling blockers – cell-based, HEK293, luciferase, cherry-pick, dose response (AID 588343); assay type: functional; conditions: Homo sapiens
[11] = blockade of melanocortin 4 receptor signaling – cell-based, plate reader, cherry pick, counter-screen for LGR2 antagonist project, dose response (AID 743444); assay type: functional;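 further: transfected HEK 293 cells stimulated with alpha-MSH peptide; potency of inhibitors of the alpha-MSH evoked signal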
[12] = OVCAR8 cell viability loss – plate reader, dry powder samples, PAX8 project, dose response (AID 743197); assay type: functional, cell-based; conditions: OVCAR-8
[13] = biological target: T2, Kappa-type opioid receptor (Homo sapiens, UniProt P41145); assay type: functional
[14] = system: Streptococcus sp. 'group A'; assay: Streptococcus pyogenes SK(-)GAS viability under kanamycin – luminescence, BacTiterGlo, confirmation, counter-screen for streptokinase expression inhibitor project, dose response (AID 1900); assay type: functional, organism-based
[15] = biological target: ATP-dependent molecular chaperone HSP82 (Candida albicans (strain WO-1) (Yeast), UniProt C4YTQ8); assay: steroid-induced GRE reporter decrease in yeast – S. cerevisiae, luminescence, Hsp90 inhibitor project, dose response (AID 2400); assay type: functional, cell-based;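 further: beta-galactosidase luminescence from glucocorticoid response element reporter as proxy for Hsp90 function; inhibitor potency where signal loss means Hsp90 inhibition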
[16] = fluconazole-exposed Candida albicans growth modulators – fluorescence, retest, confirmation (AID 2467); assay type: functional, cell-based
[17] = biological target: Heat shock protein HSP 90-alpha (Homo sapiens, UniProt P07900); assay type: functional, organism-based
Vero = assay: cells; assay type: functional; conditions: Chlorocebus sabaeus
[18] = NIH-3T3 fibroblast cytotoxicity, dose response, cytotoxicity control, cell-based, fluorescence, Alamar Blue, secondary assay (AID 2327); assay type: functional;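 further: NIH-3T3 mouse fibroblasts cultured with fluconazole at 8 µg/mL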
[19] = biological target: T2, Kappa-type opioid receptor; assay type: functional; remark: listed apart in the source
[20] = biological target: T3, Serine/threonine-protein phosphatase (Candida dubliniensis (strain CD36 / CBS 7987 / NCPF 3949 / NRRLY-17841) (Yeast), UniProt B9W6M3); assay: blockers of CaCl2-induced CDRE-lacZ signaling – S. cerevisiae, luminescence, secondary, dose response (AID 2388); assay type: functional, cell-based;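 further: yeast reporter cells carrying a calcineurin-responsive lacZ construct stimulated with calcium chloride; luminescent beta-galactosidase reporter signal in whole cells rather than isolated phosphatase activity; potency for inhibition where a drop in reporter signal means calcineurin blockade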
T3 sequence (B9W6M3 whole entry): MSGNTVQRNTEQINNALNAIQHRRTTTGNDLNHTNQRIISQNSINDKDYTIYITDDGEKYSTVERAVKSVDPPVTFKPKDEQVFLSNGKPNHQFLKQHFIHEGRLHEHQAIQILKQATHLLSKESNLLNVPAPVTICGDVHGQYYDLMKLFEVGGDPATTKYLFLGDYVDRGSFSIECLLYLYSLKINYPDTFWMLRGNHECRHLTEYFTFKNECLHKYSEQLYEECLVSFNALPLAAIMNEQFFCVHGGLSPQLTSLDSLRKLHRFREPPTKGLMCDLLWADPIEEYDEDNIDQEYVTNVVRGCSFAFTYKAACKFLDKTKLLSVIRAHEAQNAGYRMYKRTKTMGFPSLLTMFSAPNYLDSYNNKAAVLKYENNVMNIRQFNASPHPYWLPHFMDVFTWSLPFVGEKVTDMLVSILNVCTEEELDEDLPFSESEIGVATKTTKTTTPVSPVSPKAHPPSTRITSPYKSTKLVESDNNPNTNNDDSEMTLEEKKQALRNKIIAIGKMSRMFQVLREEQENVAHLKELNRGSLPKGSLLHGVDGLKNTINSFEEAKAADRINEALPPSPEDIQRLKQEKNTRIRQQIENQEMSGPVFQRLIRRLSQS

[21] = biological target: Matrix metalloproteinase-14 (Homo sapiens, UniProt P50281); assay: Dose Response confirmation of uHTS hits for a small molecule inhibitors of MT1-MMP activation in a fluorescence assay set 1.; assay type: functional
Streptococcus = assay: GAS UMAA2166 growth inhibition – luminescence, BacTiterGlo, counter-screen for streptokinase expression inhibitor project, dose response (AID 1915); assay type: functional, organism-based;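 further: potency for reduction of bacterial viability or growth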
Beta-galactosidase = Beta-galactosidase (Escherichia coli, UniProt Q8VNN2); assay type: functional
Albumin = Albumin (Bos taurus, UniProt P02769); assay: Counterscreen for inhibitors of T-cell receptor (TCR)-CD3 interaction: Fluorescence-based biochemical high throughput dose response assay to identify inhibitors of T-cell receptor (TCR)-CD3 interaction using a TAMRA-labeled BSA probe.; assay type: functional
[22] = HGIII-sPLA2 enzyme inhibition potency – biochemical, QFRET, IC50, dose response (AID 743457);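 further: green fluorescence rise as the enzyme cleaves BODIPY PC-A2 in liposomes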

T2 sequence (P41145 whole entry): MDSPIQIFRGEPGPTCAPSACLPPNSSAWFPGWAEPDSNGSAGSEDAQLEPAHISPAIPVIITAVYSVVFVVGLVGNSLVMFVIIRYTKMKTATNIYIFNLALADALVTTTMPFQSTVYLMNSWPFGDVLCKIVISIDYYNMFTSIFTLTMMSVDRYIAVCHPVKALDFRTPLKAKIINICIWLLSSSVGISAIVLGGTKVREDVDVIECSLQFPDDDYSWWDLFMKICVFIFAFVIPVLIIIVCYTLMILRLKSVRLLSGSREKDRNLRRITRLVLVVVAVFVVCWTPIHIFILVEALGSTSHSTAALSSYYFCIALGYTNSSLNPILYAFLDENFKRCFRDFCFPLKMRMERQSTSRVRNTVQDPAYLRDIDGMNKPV
Paired box protein Pax-8, sequence (Q06710 whole entry): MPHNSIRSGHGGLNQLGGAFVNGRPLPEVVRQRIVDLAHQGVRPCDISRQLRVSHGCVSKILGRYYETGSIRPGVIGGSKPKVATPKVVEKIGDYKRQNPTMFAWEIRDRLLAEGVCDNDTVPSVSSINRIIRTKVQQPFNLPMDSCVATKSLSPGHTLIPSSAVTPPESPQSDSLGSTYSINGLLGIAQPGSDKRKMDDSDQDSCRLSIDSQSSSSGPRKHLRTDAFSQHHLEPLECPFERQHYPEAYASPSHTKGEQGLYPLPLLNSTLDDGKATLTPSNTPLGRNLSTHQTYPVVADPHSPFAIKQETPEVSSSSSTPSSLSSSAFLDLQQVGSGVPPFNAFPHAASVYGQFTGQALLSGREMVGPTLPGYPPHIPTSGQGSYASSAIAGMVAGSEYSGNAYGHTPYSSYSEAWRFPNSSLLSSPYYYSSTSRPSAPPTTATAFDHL
COUP transcription factor 2, sequence (P24468 whole entry, the tested form may be a part): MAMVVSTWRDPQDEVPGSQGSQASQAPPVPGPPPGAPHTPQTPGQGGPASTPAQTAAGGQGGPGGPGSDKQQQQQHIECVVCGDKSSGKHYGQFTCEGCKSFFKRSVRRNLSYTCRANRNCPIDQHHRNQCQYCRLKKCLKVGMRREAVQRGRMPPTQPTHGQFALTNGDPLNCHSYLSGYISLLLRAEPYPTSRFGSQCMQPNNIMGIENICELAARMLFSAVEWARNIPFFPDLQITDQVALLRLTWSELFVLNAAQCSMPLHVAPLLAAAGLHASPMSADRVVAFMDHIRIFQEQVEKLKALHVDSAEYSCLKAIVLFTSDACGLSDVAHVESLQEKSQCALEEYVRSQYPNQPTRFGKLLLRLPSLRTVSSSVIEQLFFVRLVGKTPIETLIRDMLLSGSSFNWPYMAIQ
ATP-dependent molecular chaperone HSP82, sequence (C4YTQ8 whole entry): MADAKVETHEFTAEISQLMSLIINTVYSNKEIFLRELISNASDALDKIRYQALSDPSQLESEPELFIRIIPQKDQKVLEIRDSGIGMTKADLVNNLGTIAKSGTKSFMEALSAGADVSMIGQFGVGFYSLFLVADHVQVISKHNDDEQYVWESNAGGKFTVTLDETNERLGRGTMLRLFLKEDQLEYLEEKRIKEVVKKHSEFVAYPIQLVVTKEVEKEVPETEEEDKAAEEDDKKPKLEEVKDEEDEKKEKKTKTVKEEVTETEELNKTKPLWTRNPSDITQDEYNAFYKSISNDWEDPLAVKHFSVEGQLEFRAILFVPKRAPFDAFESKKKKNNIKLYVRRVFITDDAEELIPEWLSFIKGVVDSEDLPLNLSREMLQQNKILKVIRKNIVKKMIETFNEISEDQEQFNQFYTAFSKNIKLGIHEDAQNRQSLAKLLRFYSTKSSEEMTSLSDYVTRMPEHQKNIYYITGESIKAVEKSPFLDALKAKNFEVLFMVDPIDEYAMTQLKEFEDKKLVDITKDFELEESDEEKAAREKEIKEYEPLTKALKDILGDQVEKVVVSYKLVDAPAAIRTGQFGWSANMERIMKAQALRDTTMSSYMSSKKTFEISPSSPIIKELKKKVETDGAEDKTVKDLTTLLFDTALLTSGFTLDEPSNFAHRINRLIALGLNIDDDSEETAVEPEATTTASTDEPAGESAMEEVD
Albumin, sequence (P02769 whole entry): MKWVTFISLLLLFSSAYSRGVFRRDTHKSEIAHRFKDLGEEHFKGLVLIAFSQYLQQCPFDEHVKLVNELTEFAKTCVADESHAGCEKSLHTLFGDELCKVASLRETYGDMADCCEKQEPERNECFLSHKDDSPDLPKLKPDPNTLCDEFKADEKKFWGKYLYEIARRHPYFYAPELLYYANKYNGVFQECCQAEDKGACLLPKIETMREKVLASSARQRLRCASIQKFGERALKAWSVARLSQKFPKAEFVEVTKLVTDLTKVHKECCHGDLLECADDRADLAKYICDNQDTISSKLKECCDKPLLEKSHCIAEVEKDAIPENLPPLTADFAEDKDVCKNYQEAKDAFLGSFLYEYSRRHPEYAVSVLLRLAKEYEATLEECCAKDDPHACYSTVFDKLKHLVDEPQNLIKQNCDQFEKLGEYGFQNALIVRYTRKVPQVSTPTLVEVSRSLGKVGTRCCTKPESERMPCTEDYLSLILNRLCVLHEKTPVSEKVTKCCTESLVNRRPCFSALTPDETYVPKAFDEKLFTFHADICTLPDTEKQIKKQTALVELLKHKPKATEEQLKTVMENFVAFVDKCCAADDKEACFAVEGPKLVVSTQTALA
Beta-galactosidase, sequence (Q8VNN2 whole entry): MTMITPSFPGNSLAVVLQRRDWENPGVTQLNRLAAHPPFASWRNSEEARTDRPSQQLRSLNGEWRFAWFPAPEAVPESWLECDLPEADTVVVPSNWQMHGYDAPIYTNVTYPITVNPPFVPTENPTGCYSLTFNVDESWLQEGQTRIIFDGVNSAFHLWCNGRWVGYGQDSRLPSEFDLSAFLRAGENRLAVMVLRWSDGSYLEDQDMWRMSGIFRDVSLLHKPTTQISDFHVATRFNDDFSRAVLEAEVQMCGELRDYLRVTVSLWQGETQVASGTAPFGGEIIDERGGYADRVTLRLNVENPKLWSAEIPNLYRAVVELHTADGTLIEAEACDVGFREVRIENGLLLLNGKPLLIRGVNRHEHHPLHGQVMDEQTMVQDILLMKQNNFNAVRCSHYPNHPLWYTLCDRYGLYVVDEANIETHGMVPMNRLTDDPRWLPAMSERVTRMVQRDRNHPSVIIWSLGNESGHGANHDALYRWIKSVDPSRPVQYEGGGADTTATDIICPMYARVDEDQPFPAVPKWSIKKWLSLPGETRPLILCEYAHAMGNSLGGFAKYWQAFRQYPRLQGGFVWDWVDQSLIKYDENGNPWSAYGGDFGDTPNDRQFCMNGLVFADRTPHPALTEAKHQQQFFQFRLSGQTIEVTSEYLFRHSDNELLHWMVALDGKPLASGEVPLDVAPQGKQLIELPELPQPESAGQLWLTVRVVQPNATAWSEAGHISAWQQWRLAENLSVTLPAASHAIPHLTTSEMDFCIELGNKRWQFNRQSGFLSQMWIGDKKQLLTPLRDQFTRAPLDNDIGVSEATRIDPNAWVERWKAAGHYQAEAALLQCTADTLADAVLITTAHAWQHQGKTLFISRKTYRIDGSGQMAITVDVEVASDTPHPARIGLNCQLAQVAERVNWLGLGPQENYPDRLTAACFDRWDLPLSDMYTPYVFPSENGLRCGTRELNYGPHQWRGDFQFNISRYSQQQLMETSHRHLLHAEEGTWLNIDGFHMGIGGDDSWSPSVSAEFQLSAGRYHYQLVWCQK

In the case of `CC1=C(Nc2ccc(Cl)cc2)C(=O)c2ccccc2C1=O`, the AC50 [1] is reported as > 70 µM (inactive), the AC50 [2] is reported as 0.802 µM (active) and the AC50 [3] is reported as 40.7 µM (active).
For `C[C@H](CO)N1C[C@H](C)[C@@H](CN(C)S(=O)(=O)c2ccccc2)OCCCC[C@H](C)Oc2ccc(NS(=O)(=O)c3ccc(Cl)cc3)cc2C1=O`, the AC50 [4] was 49.8 µM (active), the AC50 (Paired box protein Pax-8) was 5.23 µM (active) and the AC50 [5] was 32.2 µM (active).
In the case of `Cc1sc(NC(=O)CN2CCOCC2)nc1-c1ccc2c(c1)CCN2S(=O)(=O)c1ccccc1`, the IC50 [6] is reported as 8.52 µM (active).
In the case of `CCCn1/c(=N/C(=O)c2ccco2)c(C(=O)OCC)cc2c(=O)n3ccccc3nc21`, the EC50 [7] is reported as > 67.5 µM (inactive).
With `COc1cccc(-c2ccc([C@H]3[C@H](CO)N4CCCCN(CC5CCOCC5)C[C@@H]34)cc2)c1` the AC50 [8] was 1.88 µM (active).
With `O=C(Nc1ccc(N2CCOCC2)cc1)c1cnccn1` the AC50 [9] was 4.37 µM (active), the AC50 [10] was > 52 µM (inactive) and the AC50 (HEK293) was 2.09 µM (active). The AC50 [11] was 3.9 µM (active).
With `CO[C@H]1CN(C)C(=O)c2cc(NC(=O)c3ccc(-c4ccccc4)cc3)ccc2OC[C@@H](C)NC[C@@H]1C` the AC50 [12] was 58.4 µM (active), the AC50 (Paired box protein Pax-8) was 22.6 µM (active) and the AC50 [5] was 44.6 µM (active).
In the case of `COc1ccc(C)cc1N=Nc1ccc(O)c2ncccc12`, the IC50 [13] is reported as > 31.5 µM (inactive), the EC50 [14] is reported as 0.357 µM (active) and the EC50 [15] is reported as 2.92 µM (active). For the same molecule, the EC50 [16] was 0.598 µM (active), the AC50 [17] was 1.57 µM (active) and the CC50 (Vero) was 5.17 µM (active). For the same molecule, the EC50 [18] was 11.1 µM (active), the IC50 [19] was over 32 µM and the EC50 [20] was > 180 µM (inactive). The IC50 [21] was 23.8 µM (inactive), the EC50 (Streptococcus) was 2.67 µM (active) and the EC50 (Beta-galactosidase) was 23.6 µM (active).
For `Cc1ccccc1NC(=O)NNC(=O)c1ccc2ccccc2c1O`, the IC50 (Albumin) was > 94.2 µM (inactive) and the IC50 [22] was > 122 µM (inactive).
